Measurements as given in paper PMC7438732, “The H^+-Translocating Inorganic Pyrophosphatase From Arabidopsis thaliana Is More Sensitive to Sodium Than Its Na^+-Translocating Counterpart From Methanosarcina mazei” (Frontiers in Plant Science, 2020).

What was measured:
MVP = molecular target: T1, MVP (Methanosarcina mazei, UniProt Q8PYZ8); assay: colorimetric orthophosphate release; fit of MWC-derived Equation […]; format: biochemical; settings: read-out: KR
T1 construct: gene hppA1; InvGFPMVP: N-terminal signal peptide of yeast Suc2p + yEGFP + MVP; stripped microsomal membranes of S. cerevisiae YPC6; homodimer
T1 sequence (Q8PYZ8 whole entry): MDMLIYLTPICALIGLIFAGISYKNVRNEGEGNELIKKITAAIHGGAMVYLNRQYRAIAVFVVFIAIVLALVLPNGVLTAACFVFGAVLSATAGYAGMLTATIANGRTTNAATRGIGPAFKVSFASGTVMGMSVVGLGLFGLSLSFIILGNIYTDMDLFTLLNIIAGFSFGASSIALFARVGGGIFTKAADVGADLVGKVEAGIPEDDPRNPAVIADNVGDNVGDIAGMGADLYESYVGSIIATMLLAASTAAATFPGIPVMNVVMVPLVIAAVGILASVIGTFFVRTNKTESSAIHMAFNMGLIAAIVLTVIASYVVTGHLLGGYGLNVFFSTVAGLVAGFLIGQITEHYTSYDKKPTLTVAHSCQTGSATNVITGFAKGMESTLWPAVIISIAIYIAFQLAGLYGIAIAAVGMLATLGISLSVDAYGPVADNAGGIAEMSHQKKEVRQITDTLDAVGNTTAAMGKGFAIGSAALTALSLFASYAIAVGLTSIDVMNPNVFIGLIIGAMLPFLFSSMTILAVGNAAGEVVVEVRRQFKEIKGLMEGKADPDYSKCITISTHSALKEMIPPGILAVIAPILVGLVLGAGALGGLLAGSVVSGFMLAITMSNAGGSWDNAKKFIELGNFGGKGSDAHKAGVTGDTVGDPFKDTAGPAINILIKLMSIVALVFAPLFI

AVP1 = molecular target: T2, AVP1 (Arabidopsis thaliana, UniProt P31414); assay: as above; format: biochemical; settings: read-out: KR
T2 construct: InvGFPAVP1: N-terminal signal peptide of yeast Suc2p + yEGFP + AVP1; stripped microsomal membranes of S. cerevisiae YPC6; homodimer
T2 sequence (P31414 1-770): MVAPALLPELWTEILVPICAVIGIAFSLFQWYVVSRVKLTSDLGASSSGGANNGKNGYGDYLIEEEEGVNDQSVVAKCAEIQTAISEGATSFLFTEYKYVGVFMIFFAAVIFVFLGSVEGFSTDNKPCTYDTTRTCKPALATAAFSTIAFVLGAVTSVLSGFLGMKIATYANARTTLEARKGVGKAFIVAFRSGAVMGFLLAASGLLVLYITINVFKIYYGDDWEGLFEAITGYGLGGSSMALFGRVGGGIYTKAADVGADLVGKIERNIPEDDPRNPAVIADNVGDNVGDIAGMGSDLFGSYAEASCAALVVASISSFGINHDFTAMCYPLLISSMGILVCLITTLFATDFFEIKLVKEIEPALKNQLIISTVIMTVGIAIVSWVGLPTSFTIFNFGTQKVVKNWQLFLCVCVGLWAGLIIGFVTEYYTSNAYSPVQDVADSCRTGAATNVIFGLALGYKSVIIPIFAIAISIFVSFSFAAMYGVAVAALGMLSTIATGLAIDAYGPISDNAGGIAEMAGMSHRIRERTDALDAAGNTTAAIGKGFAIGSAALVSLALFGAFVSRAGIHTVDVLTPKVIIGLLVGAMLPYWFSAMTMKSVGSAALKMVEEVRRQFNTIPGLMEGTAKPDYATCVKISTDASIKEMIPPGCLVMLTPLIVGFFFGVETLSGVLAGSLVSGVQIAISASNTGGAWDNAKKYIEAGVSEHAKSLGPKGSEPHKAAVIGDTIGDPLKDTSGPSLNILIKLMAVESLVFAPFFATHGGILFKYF

Kd (MVP): 62 ± 8 µM
Kd (AVP1): 84 ± 9 µM
Structure (SMILES): O=P(O)(O)OP(=O)(O)O [Mg2PPi]
